Measurements taken from patent publication US12195427B2, “MASP-2 inhibitors and methods of use” (priority 2018, dated 2025).

Target: MASP-2 CCP2-SP (Homo sapiens (Human), UniProt O00187)
Experiment: MASP-2 co-crystallization, X-ray crystallography and structure analysis (H-bonds, van der Waals contacts);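 as to Ligand-pharmacophore element distance, pharmacophore element C2: distance from averaged pharmacophore element to bound ligand; missing value means element absent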;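 as to Ligand-pharmacophore element distance, pharmacophore element C3: distance from averaged pharmacophore element to bound ligand; missing value means element absent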;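 as to Ligand-pharmacophore element distance, pharmacophore element C4: distance from averaged pharmacophore element to bound ligand; missing value means element absent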;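 as to Ligand-pharmacophore element distance, pharmacophore element C5: distance from averaged pharmacophore element to bound ligand; missing value means element absent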
Parameters: van der Waals contact distance, MASP-2 HIS 483 atom CD2 / van der Waals contact distance, MASP-2 HIS 483 atom NE2 / van der Waals contact distance, SER 654 C to compound atom / van der Waals contact distance, SER 654 O to compound atom / van der Waals contact distance, TRP 655 C to compound atom / van der Waals contact distance, MASP-2 GLY 528 atom CA / van der Waals contact distance TRP 655 atom CZ3 / van der Waals contact distance TRP 655 atom N / van der Waals contact distance TRP 655 atom CE3 / van der Waals contact distance GLY 656 atom C / van der Waals contact distance GLY 656 atom CA / van der Waals contact distance GLY 656 atom O / van der Waals contact distance, MASP-2 TYR 607 atom CD1 / van der Waals contact distance, MASP-2 PRO 606 atom O / d(C3,CA1) / d(CA1,N1)2 / d(H4,O1) / d(H4,O2) / d(O1,O2) / d(CA1,O2) / d(CA6,O1) / d(CA6,O2) / d(CA1,C5) / d(O2,H3) / d(N2,C2) / d(CA5,N2) / d(N2,C4) / d(N2,C6) / d(N2,CA3) / d(N2,O3) / d(O4,H2): unit not given beside the values
Summary of the method: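 Inhibitor complexes were obtained by soaking crystals of E. coli-derived human MASP-2 CCP2-SP. Synchrotron diffraction at 1.0 wavelength, molecular replacement and partial refinement gave the models; one pose per ligand was chosen for contact analysis.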

[1] = Table A5-1 pharmacophore: distance between elements, S2/S1 region
[2] = Table A5-2 pharmacophore distance, S3/S4 region
[3] = Table A7-1, between pharmacophore elements of the bound compound
[4] = Table A8-6, nearest protein atom in cell to the left

Sequence of MASP-2 CCP2-SP (O00187 445-686): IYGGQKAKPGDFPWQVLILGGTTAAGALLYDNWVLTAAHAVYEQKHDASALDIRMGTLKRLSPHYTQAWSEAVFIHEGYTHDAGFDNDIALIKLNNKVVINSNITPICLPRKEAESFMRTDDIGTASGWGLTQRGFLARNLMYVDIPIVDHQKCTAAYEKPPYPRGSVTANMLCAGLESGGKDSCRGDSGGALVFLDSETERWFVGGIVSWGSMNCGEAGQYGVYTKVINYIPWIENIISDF
Sequence of MASP-2 CCP2-SP (O00187 364-432 partner): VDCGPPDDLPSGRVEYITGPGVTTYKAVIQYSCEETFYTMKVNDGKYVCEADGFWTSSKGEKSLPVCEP

Compound: C[C@H](NC(=O)[C@H](N)CCCc1ccccc1)C(=O)NCc1ccc(C(=N)N)cc1.Cl.Cl [1042_1]
- Ligand-pharmacophore element distance, pharmacophore element C2 (Table A4-1, element C2): 1.81
- Ligand-pharmacophore element distance, pharmacophore element C3 (Table A4-1, element C3): 0
- Ligand-pharmacophore element distance, pharmacophore element C4 (Table A4-1, element C4): 0
- Ligand-pharmacophore element distance, pharmacophore element C5 (Table A4-1, element C5): 0
- Ligand-pharmacophore element distance, pharmacophore element C6 (Table A4-1, element C6): 0
- Ligand-pharmacophore element distance, pharmacophore element C7 (Table A4-1, element C7): 0
- Ligand-pharmacophore element distance, pharmacophore element CA1 (Table A4-1, element CA1): 0.87
- Ligand-pharmacophore element distance, pharmacophore element CA2 (Table A4-1, element CA2): 0.48
- Ligand-pharmacophore element distance, pharmacophore element CA3 (Table A4-1, element CA3): 0
- Ligand-pharmacophore element distance, pharmacophore element CA4 (Table A4-1, element CA4): 0
- Ligand-pharmacophore element distance, pharmacophore element CA5 (Table A4-1, element CA5): 0
- Ligand-pharmacophore element distance, pharmacophore element CA6 (Table A4-1, element CA6): 0
- Ligand-pharmacophore element distance, pharmacophore element H1 (Table A4-2, element H1): 0
- Ligand-pharmacophore element distance, pharmacophore element H2 (Table A4-2, element H2): 0
- Ligand-pharmacophore element distance, pharmacophore element H3 (Table A4-2, element H3): 5.4
- Ligand-pharmacophore element distance, pharmacophore element H4 (Table A4-2, element H4): 3.08
- Ligand-pharmacophore element distance, pharmacophore element N1 (Table A4-2, element N1): 1.3
- Ligand-pharmacophore element distance, pharmacophore element N2 (Table A4-2, element N2): 0.56
- Ligand-pharmacophore element distance, pharmacophore element O1 (Table A4-2, element O1): 2.71
- Ligand-pharmacophore element distance, pharmacophore element O2 (Table A4-2, element O2): 0.67
- Ligand-pharmacophore element distance, pharmacophore element O3 (Table A4-2, element O3): 0
- Ligand-pharmacophore element distance, pharmacophore element O4 (Table A4-2, element O4): 0
- d(CA1,N1) [1]: 3.58
- d(CA1,O1) [1]: 3.98
- d(CA1,O2) [1]: 4.13
- d(H4,O1) [1]: 3.35
- d(H4,O2) [1]: 3.67
- d(O1,O2) [1]: 3.40
- d(N2,C2) [2]: 3.42
- d(N2,CA2) [2]: 6.20
- d(O2,H3) [2]: 5.43
- d(O2,N2) [2]: 2.64
- a(CA1, O1, O2) (Table A6-1 pharmacophore angle): 117.21
- a(O1, O2, H4) (Table A6-1 pharmacophore angle): 122.15
- A(N1, CA1, O1) a) (Table A6-1 pharmacophore angle, all compounds with protonatable center N1 except Methyl-amino-pyridine): 158.11
- a(O1, O2, H3) (Table A6-2 pharmacophore angle): 149.96
- a(O1, O2, N2) (Table A6-2 pharmacophore angle): 170.80
- a(O2, N2, C2) (Table A6-2 pharmacophore angle): 140.47
- a(O2, N2, CA2) (Table A6-2 pharmacophore angle): 155.50
- Pharmacophore torsion angle a(H4, O1, O2, H3) [3]: −19.99
- Pharmacophore torsion angle a(H4, O1, O2, N2) [3]: 68.67
- Pharmacophore torsion angle a(N1, CA1, O2, H4) [3]: 9.10
- Pharmacophore torsion angle a(O1, H4, O2, CA1) [3]: −160.50
- Pharmacophore torsion angle a(O1, O2, N2, C2) [3]: 115.48
- Pharmacophore torsion angle a(O1, O2, N2, CA2) (Table A7-2, between pharmacophore elements of the bound compound): 136.01
- Pharmacophore protein distance to MET_658 (first MET_658 column) (Table A8-6, 6th residue column, nearest protein atom in cell to the left): 2.06
- Pharmacophore protein distance to MET_658 (second MET_658 column) (Table A8-6, 9th residue column, nearest protein atom in cell to the left): 3.40
- Pharmacophore protein distance to GLY_528 [4]: 4.67
- Pharmacophore protein distance to PHE_529 [4]: 3.84
- Pharmacophore protein distance to PRO_608 [4]: 3.46
- Pharmacophore protein distance to SER_611 [4]: 2.14
- Pharmacophore protein distance to TRP_655 (Table A8-6, pharmacophore elements C6, CA3, O3, H1, nearest protein atom in cell to the left): 3.28
